Reference: patent US7250432B2, “Pharmaceutical compositions of diaryl-isoxazole derivatives for the prevention and treatment of cancers” (Korea Research Institute of Bioscience and Biotechnology, priority 2003, dated 2007)

How the values were obtained:
[1] = system: breast cancer cell line (MDA-MB-231); experiment: Analysis of cell migration (modified Boyden chamber); type: cell-based; conditions: for Cell migration inhibition rate / inhibition at 1 µM / inhibition at 10 µM: breast cancer cells, 18 hours; for inhibition at 1 µM / inhibition at 10 µM: read-out: Cell migration inhibition rate
Experimental: In order to investigate cell migration, modified Boyden chamber and 8 μm pore membrane were purchased from Neuro probe Co. and staining solution for cell staining, Giemsa solution, was purchased from Sigma Co. Other instruments used were CO2 incubator for cell culture, centrifuge for cell washing and inverted microscope (TE 300, Nikon, Japan) for observation.
Particularly, 90% grown up cells on a culture plate were isolated using trypsin/EDTA. The cells were treated with soybean trypsin inhibitor, and washed with serum free medium three times. Then, cell density was adjusted to 4×10^5 cells/ml. The compounds of Example 1-6 and a medium supplemented with 10% FBS were put by 30 μl each in a chamber well of the bottom of modified Boyden chamber, on which 8 μm pore membrane was put. Silicon gasket was placed over and finally a top plate was put on the gasket and fastened with a nut. The cultured cells were put in a well of top plate by 50 μl. The chamber was rapped and further cultured in a 37° C. 5% CO2 incubator for 18 hours.
18 hours later, the nut was taken out. Membrane was separated and fixed in methanol for 10 minutes, followed by drying in the air. After membrane was completely dried, it was stained in Giemsa solution for 90 minutes. At that time, the staining solution was diluted with distilled water at the ratio of 1:10 before use. Upon competing staining, the membrane was dipped in distilled water for about 10 seconds for washing. The membrane was put on a cover slip with a part having cells not shifted heading up and scrubbed with a cotton swab carefully. Manicure was put on the edge of the cover slip, which was then fixed well on a slide glass. The number of migrated cells on the sample prepared above was investigated under inverted microscope.
Cell migration inhibition rate (%)=100−[Number of migrated cells treated with test samples/Number of migrated cells of control]×100
For a control group, only 1% dimethyl sulfoxide […]) was added instead of a compound of the present invention.

[2] = Acute oral toxicity test in rats; type: in vivo
Experimental: 6-week old SPF (specific pathogen-free) SD line rats were used in the acute toxicity test. Compound 1 of the present invention was suspended in 0.5% methylcellulose solution and orally administered once to 2 rats per group. Death, clinical symptoms, and weight change in rats were observed, hematological tests and biochemical tests of blood were performed, and any abnormal signs in the gastrointestinal organs of chest and abdomen were checked with eyes during autopsy.

[3] = system: HUVEC; experiment: in vitro endothelial morphogenesis assay (tube formation); type: cell-based, human
Experimental: Angiogenesis inhibition activity of the compound of the present invention was investigated by in vitro endothelial morphogenesis assay using human originated cell line HUVEC.
24-well cell culture plate and matrigel matrix were purchased from BD biosciences Co. Other instruments used for the experiments were CO2 incubator for cell culture and inverted microscope (TE 300, Nikon, Japan) equipped with a digital camera for observation and confirmation of the result.
Particularly, starvation of HUVECs on a serum free medium was performed for overnight. Each well of 24-well cell culture plate was coated with 0.2 Ml of matrigel matrix, which was cultured in a 37° C. incubator for 1 hour. 0.2 Ml of cell culture solution with the cell density of 20000 was put in each well, which was further cultured in a CO2 incubator for 30 minutes. Then, a fresh medium, which was diluted with different concentrations of the compounds of Example 1-6, was given to each well. 1% serum was added to the wells, followed by further culture for 24 hours. Tube formation by HUVECs is observed. In this invention, inhibition of tube formation by the compound of the present invention was observed under inverted microscope, and the results were shown in FIG. 2 and FIG. 3. […]

[4] = system: zebrafish; experiment: Angiogenesis inhibition in zebrafish embryos (subintestinal vessels); type: in vivo; conditions: FIG. 4
Experimental: Experimental instruments used for the invention were temperature-controlled incubator for the incubation of embryo and inverted microscope (TE 300, Nikon, Japan) equipped with a digital camera for observation and confirmation for the results.
Embryos of zebrafish were loaded on a 96-well plate by three embryos per well. The embryos were confirmed to be synchronized embryos which means one day has passed after development. The compounds of the present invention were dissolved in 0.1% DMSO to prepare different concentrations for each compound. Each compound was treated to 4 wells and inhibition of subintestinal vessels (SIVs) in 12 embryos was investigated. To prepare a control, 8 wells were treated with 0.1% DMSO (in embryo water: 0.2 g/l instant ocean salt) (Randall T. Peterson, et al, Proc. Natl. Aced. Sci. USA, 2000, 97: 12965).
For the observation of angiogenic vessels (SIVs), an rmmunological approach of Catherine E. Willet, et al. (Catherine E. Willet, et al., Angiogenesis, 1999, 3: 353), was used in the present invention. Particularly, three days after development, an embryo was fixed in 4% paraformaldehyde at room temperature for 2 hours. The embryo was washed twice with PBS, and dehydrated step by step with PBS, 25%, 50%, 75% and 100% methanol. Then, the embryo was rehydrated step by step with 100%, 75%, 50% and 25% methanol and PBS. […]

[5] = Homo sapiens, MDA-MB-231, 10 uM

5-(2,4-dimethoxy-5-ethylphenyl)-4-(4-bromophenyl)isoxazole [Example 2]
Cell migration inhibition rate ([1]; 1 uM): 90.80% | Cell migration inhibition rate ([1]; 10 uM): 94.80%

CCc1cc(-c2oncc2-c2ccc(OC)cc2)c(O)cc1OC [Example 1, 5-(5-ethyl-2-hydroxy-4-methoxyphenyl)-4-(4-methoxyphenyl)isoxazole]
inhibition at 1 µM ([1]; Homo sapiens, MDA-MB-231, 1 uM): 92.3% | inhibition at 10 µM [1, 5]: 94.5% | inhibition at 0.05 µM ([1]; Homo sapiens, 50 nM, MDA-MB-231, FIG. 1): ≤ 50% | LD50 ([2]; SD, rat, in vivo, rats, oral, read-out: estimated LD50): > 1500 mg/kg | clinical symptoms, weight change, death ([2]; rat, in vivo, po): did not cause any specific clinical symptoms, weight change, or death | hematological tests, biochemical tests of blood, autopsy ([2]; rat, in vivo, po): No change was observed | level up to which no toxic change was caused ([2]; rats, single oral administration): ≤ 1000 mg/kg | inhibition of tube formation in vascular endothelial cells ([3]; 0.01 μM, FIG. 2): already detected | inhibition of tube formation in vascular endothelial cells ([3]; 1 μM, FIG. 3): inhibited tube formation | inhibition of angiogenesis in zebrafish ([4]; 0.5 μM): inhibited angiogenesis | inhibition at 0.5 µM ([4]; Danio rerio, 500 nM): ≤ 50%

CCc1cc(-c2oncc2-c2ccc(OC)cc2)c(OC)cc1OC [Example 3, 5-(2,4-dimethoxy-5-ethylphenyl)-4-(4-methoxyphenyl)isoxazole]
inhibition at 1 µM ([1]; Homo sapiens, MDA-MB-231, 1 uM): 68.4% | inhibition at 10 µM [1, 5]: 82.5%

CCc1cc(-c2oncc2-c2ccc(OC)cc2)c(OCc2ccccc2)cc1OC [Example 4, 5-(2-benzyloxy-5-ethyl-4-methoxyphenyl)-4-(4-methoxyphenyl)isoxazole]
inhibition at 1 µM ([1]; Homo sapiens, MDA-MB-231, 1 uM): 54.6% | inhibition at 10 µM [1, 5]: 70.1%

CCc1cc(-c2oncc2-c2ccc(O)cc2)c(O)cc1OC [Example 5, 5-(5-ethyl-2-hydroxy-4-methoxyphenyl)-4-(4-hydroxyphenyl)isoxazole]
inhibition at 1 µM ([1]; Homo sapiens, MDA-MB-231, 1 uM): 43.5% | inhibition at 10 µM [1, 5]: 43.3%

CCc1cc(-c2oncc2-c2ccc(O)cc2)c(O)cc1O [Example 6, 5-(2,4-dihydroxy-5-ethylphenyl)-4-(4-hydroxyphenyl)isoxazole]
inhibition at 1 µM ([1]; Homo sapiens, MDA-MB-231, 1 uM): 79.5% | inhibition at 10 µM [1, 5]: 79.4%
